What was measured:
[1] = system: wild type (WT) yeast containing the ERG2; experiment: Optical sodium and potassium ion sensor monitoring of yeast cells stimulated with a HERG inhibitor (HERG compatibility screen), wild type; conditions: FIG. 6
Source text: (§1) The sensors of the present invention are suited to many different types of assays, or for the detection of compounds. In one exemplary application, a model cell system is used to screen for HERG compatibility. HERG (human ether-a-go-go) channels are implicated in the abnormal heart rhythms associated with Long QT Syndrome. It is believed that many compounds can block these channels and cause prolongation of the beat cycle of the heart. This abnormal rhythm can cause arrhythmia and can even lead to death. Accordingly, it is important that all drugs, regardless of therapeutic target, be screened for HERG compatibility.
(§2) Much is known genetically about yeast, and gene knock-outs are commercially available, allowing for the screening of two types of yeast: the wild type (WT) containing the ERG2, and one mutated to knock-out the ERG2 gene.
(§3) This example utilizes two cell types and two types of sensors, providing four different data signals, and the approach can be extended to an arbitrary number of sensors and cell types. Similarly, tissue can be used instead of culture.

[2] = system: yeast mutated to knock-out the ERG2 gene; experiment: Optical sodium and potassium ion sensor monitoring of yeast cells stimulated with a HERG inhibitor (HERG compatibility screen), ERG2 knock-out; conditions: FIG. 6
Source text: as §1, §2, §3

SMILES: O=C(CCCN1CCC(O)(c2ccc(Cl)cc2)CC1)c1ccc(F)cc1 [Haloperidol]
- change in potassium upon stimulation of the cells ([1]; potassium sensor): a change is observed
- change in sodium upon stimulation of the cells ([1]; sodium sensor): a change is observed
- response in potassium upon stimulation of the cells ([2]; potassium sensor): no response
- response in sodium upon stimulation of the cells ([2]; sodium sensor): no response

From patent publication US7910065B2, “Reaction sensing in living cells” (The Charles Stark Draper Laboratory, Inc., priority 2005, dated 2011)
